Reference: patent publication US12110255B2, “Additive formulation for reduction or prevention of microbially induced corrosion in concrete or cementitious material” (MICROBAN PRODUCTS COMPANY, priority 2017, dated 2024)
Values after ≈ are worked out from the molar mass of the structure shown. Like-named read-outs stand apart in the source and are kept apart here.

Assays:
Fusarium oxysporum = assay: Minimum Inhibitory Concentration (MIC) test, aqueous state; format: cell-based; conditions: for MIC: Fusarium oxysporum
Experimental: (§1) Table 1 indicates the MIC values generated against Th. Novella, Fusarium and a combination of the two for two antifungal additives that were tested in the aqueous state.
(§2) In addition to testing the active ingredients alone, MIC tests were conducted for combinations of the QS and the antifungal actives. An OIT active material was added to this test using the QS molecule to compatibilize the mixture, making the mixture water soluble so MIC testing was possible. Table 2 summarizes the MIC data generated for these actives:
(§3) Testing was also conducted to determine whether the addition of the defoamer or mixing the QS and OIT together would have any effect on the microbial efficacy of these components.

Aspergillus niger = assay: Minimum Inhibitory Concentration (MIC) test; format: cell-based; conditions: Table 5, Tributyl Phosphate Defoamer: No
Experimental: as §3

Starkeya + Fusarium = assay: Minimum Inhibitory Concentration (MIC) test, aqueous state; format: cell-based, Starkeya novella + Fusarium oxysporum; conditions: for MIC: Fusarium, read-out: Active Ingredient Minimum Inhibitory Concentration, Starkeya + Fusarium
Experimental: as §1
as §2, with “actives: […]” for “actives:”

Starkeya novella = assay: as above; format: cell-based; conditions: Ancylobacter novellus, active ingredient alone
Experimental: as §1
as §2, with “actives: […]” for “actives:”

[1] = Table 5, Tributyl Phosphate Defoamer: No, read-out: MIC, Fusarium oxysporum
[2] = active ingredient alone, aqueous state

Work on `CCCCCCCCn1sccc1=O` [OIT, 2-Octyl-2H-isothiazol-3-one] yielded an MIC (Fusarium oxysporum; [1]) of 6.3 µg/mL and an MIC (Aspergillus niger) of 6.3 µg/mL (≈ 29.5 µM).
`Oc1ccccc1-c1ccccc1.[Na]` [P2, Sodium OrthophenylPhenol] showed an MIC (Fusarium oxysporum; read-out: Active Ingredient Minimum Inhibitory Concentration, Fusarium oxysporum) of 250 µg/mL and an MIC (Starkeya + Fusarium) of 125 µg/mL.
Compound `CCCCCCCCCCCCCCCCCC[N+](C)(C)CCC[Si](OC)(OC)OC.[Cl-]` [QS, 1-Octadecanaminium, N,N-dimethyl-N-(3-(trimethoxysilyl)propyl)-, chloride] has an MIC (Starkeya novella) of 7.8 µg/mL, an MIC (Fusarium oxysporum; [1]) of 15.6 µg/mL and an MIC (Fusarium oxysporum; active ingredient alone, aqueous state, read-out: Active Ingredient Minimum Inhibitory Concentration, Fusarium oxysporum) of 15.6 µg/mL. For the same compound, the MIC (Starkeya + Fusarium; [2]) was 31.3 µg/mL and the MIC (Aspergillus niger) was 125 µg/mL.
For Imazalil Sulphate [IF4], the “Active Ingredient Minimum Inhibitory Concentration, Fusarium oxysporum” value (Fusarium oxysporum; [2]) was 500 ppm and the “Active Ingredient Minimum Inhibitory Concentration, Starkeya + Fusarium” value (Starkeya + Fusarium; [2]) was 500 ppm.
